Reference: patent US10441594B2, “Methods of making quinoa leachates and uses thereof” (priority 2013, dated 2019)

Legend:
[1] = test system: diet-induced obese, hyperglycemic mice; conditions: 10 mg/kg body weight for 13 wk; cited from earlier work
[2] = test system: diet-induced obese, hyperglycemic mice (C57BL/6J); experiment: Acute hypoglycemic study in diet-induced obese mice (fasting blood glucose); type: in vivo; conditions: 300 mg/kg oral
Method: An acute hypoglycemic study in diet-induced obese mice was performed as described previously (Cheng et al., Food Chem 135: 2994-3002, 2012, incorporated herein by reference). Briefly, five-week-old male C57Bl/6J mice (Jackson Labs), acclimated for 1 week with ad libitum access to chow (Purina, No. 5014) and water, and maintained on a very high-fat diet (VHFD) containing 60% fat-derived calories (D12492; Research Diets) for an additional 15 weeks to induce obesity, insulin resistance, and hyperglycemia. Food intake and body weight were monitored weekly. Following a 4-hour fasting period, fasting blood glucose (FBG) was measured using an AlphaTRAK® handheld glucometer (Abbott Labs, Inc.), and mice were randomly divided into FBG-balanced experimental groups.
Quinoa leachate (QL) was formulated in 70% Labrasol® (Gattefossé Corp., Paramus, N.J.). The biological activity of QL was tested using an oral ingestion of 0.25 ml per 50 g body weight of vehicle (70% Labrasol®) or QL (250 and 500 mg/kg) (n=7). Metformin® (300 mg/kg, dissolved in water) was administered as a positive control. FBG was reassessed 4 hours post-treatment. Mean FBG values before and after treatment were calculated for each group and compared using paired t-tests in Microsoft Excel. Additionally, final % FBG (final FBG/initial FBG×100) of each mouse was calculated 4 hours post-treatment. […]

Structure (SMILES)	blood glucose levels [1]	reduction of adiposity compared with control [1]	hypoglycemic effect compared with control (1-way ANOVA, Dunnett's post hoc test) ([2]; 4 hours)	FBG levels 4 hours after oral administration versus before treatment (paired t-test) ([2]; positive control)
CC(C)(O)CC[C@@H](O)[C@](C)(O)[C@H]1CC[C@@]2(O)C3=CC(=O)[C@@H]4C[C@@H](O)[C@@H](O)C[C@]4(C)[C@H]3CC[C@]12C [20-HE, 20-hydroxyecdysone]	significantly lowered blood glucose levels	41%	–	–
CN(C)C(=N)N=C(N)N [Metformin]	–	–	significant hypoglycemic effects compared with control	significantly lowered FBG levels
